Experimental findings from US6784201B2, “Benzothiepines having activity as inhibitors of ileal bile acid transport and taurocholate uptake” (G.D. Searle & Company, priority 1994, dated 2004) are described below.

Molecules are shown by their SMILES. pIC50: −log10 of the molar value.

The first experiment addresses T1, human IBAT (Homo sapiens, UniProt Q12908).
T1 construct: expressed in transfected cells; host or cells: Baby hamster kidney (BHK) cells, clone H14
T1 sequence (Q12908 1-348): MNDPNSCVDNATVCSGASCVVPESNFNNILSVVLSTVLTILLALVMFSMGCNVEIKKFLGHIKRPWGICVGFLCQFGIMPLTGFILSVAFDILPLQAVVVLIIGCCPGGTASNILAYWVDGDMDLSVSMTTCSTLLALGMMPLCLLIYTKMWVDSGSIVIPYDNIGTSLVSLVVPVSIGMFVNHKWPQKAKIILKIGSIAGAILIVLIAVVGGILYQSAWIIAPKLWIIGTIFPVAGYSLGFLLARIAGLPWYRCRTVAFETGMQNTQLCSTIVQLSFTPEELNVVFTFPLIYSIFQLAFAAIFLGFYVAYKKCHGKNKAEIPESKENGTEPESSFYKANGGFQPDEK
In words: In vitro assay of IBAT-mediated uptake of [14C]-taurocholate (TC) in H14 cells. Conditions: Human TC IC50. Format: cell-based. The procedure, abridged: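 BHK cells stably expressing human IBAT (H14) were incubated 2 h at 37° C with compound and 3 μM final [14C]-taurocholate in DMEM (4.5 g/L glucose) plus 0.2% fatty acid-free BSA. After cold PBS washes, cell-associated radioactivity was measured by scintillation counting.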
`CCCCC1(CCCC)CS(=O)(=O)c2ccc(N(C)C)cc2C(c2ccc(CC(=O)N(C)CN(C)C)c(F)c2)C1O` (stereo not drawn) [Example 1280] showed a negative logarithm of the IC50 (pIC50) of 6.12. Regarding `CCCCC1(CC)CS(=O)(=O)c2ccc(N(C)C)cc2C(c2ccccc2)C1O` (stereo not drawn) [Example 1285], the pIC50 is 7.57.

Still in this experiment, the particulars now being: read-out: Human TC IC50.
With `CCCCC1(CCCC)CS(=O)(=O)c2ccc(N(C)C)cc2C(c2ccc(OCCC[N+](CC)(CC)CC)cc2)C1O` (stereo not drawn) [Example 1252], the pIC50 is 4.54. The same measure, in the same setting: for `CCCCC1(CCCC)CS(=O)(=O)c2ccc(N(C)C)cc2C(c2ccc(OC)c(C[N+](C)(C)C)c2)C1O` (stereo not drawn) [Example 1253] the value was 6.52; for `CCCCC1(CCCC)CS(=O)(=O)c2ccc(N(C)C)cc2C(c2ccc(C[n+]3ccccc3)cc2)C1O` (stereo not drawn) [Example 1254], 6.07. For `CCCCC1(CCCC)CS(=O)(=O)c2ccc(N(C)C)cc2C(c2cccc(C[N+](C)(C)CC[N+](C)(C)C)c2)C1O` (stereo not drawn) [Example 1255], the pIC50 is 6.16. On to `CCCCC1(CCCC)CS(=O)(=O)c2ccc(N(C)C)cc2C(c2cccc([N+](=O)[O-])c2)C1O` (stereo not drawn) [Example 1256], for which the negative logarithm of the IC50 (pIC50) is 7.96. Take `CCCCC1(CCCC)CS(=O)(=O)c2cc(Br)c(N(C)C)cc2C(c2ccccc2)C1O` (stereo not drawn) [Example 1257]: the pIC50 was 7.00.

Regarding `CCCCC1(CCCC)CS(=O)(=O)c2c(NC(C)(C)C)cccc2C(c2ccc(F)cc2)C1O` (stereo not drawn) [Example 1258], the pIC50 is 6.92. Take `CCCCC1(CC)CS(=O)(=O)c2ccc(N(C)C)cc2C(c2cccc(O)c2)C1O` (stereo not drawn) [Example 1260]: the negative-log IC50 (pIC50) was 7.92. Take `CCCCC1(CCCC)CS(=O)(=O)c2ccc(N(C)C)cc2C(c2cccs2)C1O` (stereo not drawn) [Example 1262]: the negative logarithm of the IC50 (pIC50) is 7.52. Regarding `CCCCC1(CCCC)CS(=O)(=O)c2ccc(NC(C)C)cc2C(c2ccc(F)cc2)C1O` (stereo not drawn) [Example 1264], the negative logarithm of the IC50 (pIC50) was 6.68. As for `CCCCC1(CCCC)CS(=O)(=O)c2c(NC(C)C)cccc2C(c2ccc(F)cc2)C1O` (stereo not drawn) [Example 1265], the negative-log IC50 (pIC50) was 6.62. Take `CCCCC1(CCCC)CS(=O)(=O)c2ccc(N(C)C)cc2C(c2ccc(OCCCCCCCCCC[N+](CC)(CC)CC)cc2)C1O` (stereo not drawn) [Example 1268]: the pIC50 was 7.46.

For the compound `CCCCC1(CCCC)CS(=O)(=O)c2ccc(N(C)C)cc2C(c2ccc(OCCCCCCCCCCI)cc2)C1O` (stereo not drawn) [Example 1269], the pIC50 was 7.59. Turning to `CCCCC1(CCCC)CS(=O)(=O)c2ccc(N(C)C)cc2C(c2ccc(OCCCCBr)c(F)c2)C1O` (stereo not drawn) [Example 1270], the pIC50 is 7.59.

Turning to `CCCCC1(CCCC)CS(=O)(=O)c2ccc(N(C)C)cc2C(c2cccc(OCCOCCOCC[N+](C)(C)CCN(CC)S(=O)(=O)c3ccccc3)c2)C1O` (stereo not drawn) [Example 1271], the pIC50 is 7.96. In the case of `CCCCC1(CCCC)CS(=O)(=O)c2ccc(N(C)C)cc2C(c2cccc(OCCOCCOCC[n+]3cccc(CC(=O)O)c3)c2)C1O` (stereo not drawn) [Example 1272], the pIC50 is 7.33. Consider `CCCCCCCCC[N+](CCCCCCCCC)(CCCCCCCCC)CCOCCOCCOc1cccc(C2c3cc(N(C)C)ccc3S(=O)(=O)CC(CCCC)(CCCC)C2O)c1` (stereo not drawn) [Example 1273], for which the negative logarithm of the IC50 (pIC50) was 7.54. As to `CCCCC1(CCCC)CS(=O)(=O)c2ccc(N(C)C)cc2C(c2ccc(OCc3cccc(CCl)n3)c(F)c2)C1O` (stereo not drawn) [Example 1274], the negative-log IC50 (pIC50) is 7.55. For `CCCCC1(CCCC)CS(=O)(=O)c2ccc(N(C)C)cc2C(c2ccc(OCCOCC[N+]3(C)CC[N+](C)(C)CC3)c(F)c2)C1O` (stereo not drawn) [Example 1275], the pIC50 was 7.62. As for `CCCCC1(CCCC)CS(=O)(=O)c2ccc(N(C)C)cc2C(c2cccc(OCCOCCOCC[N+](CCCCCCC(C)C)(CCCCCCC(C)C)CCCCCCC(C)C)c2)C1O` (stereo not drawn) [Example 1276], the pIC50 was 7.54. `CCCCC1(CCCC)CS(=O)(=O)c2ccc(N(C)C)cc2C(c2ccc(OCCOCCN(C)CC(=O)O)c(F)c2)C1O` (stereo not drawn) [Example 1277]: the negative logarithm of the IC50 (pIC50) is 7.74. On the same count and under the same terms, for `CCCCC[N+](CCCCC)(CCCCC)CCOCCOCCOc1cccc(C2c3cc(N(C)C)ccc3S(=O)(=O)CC(CCCC)(CCCC)C2O)c1` (stereo not drawn) [Example 1278] the value was 7.77. Regarding `CCCCCC[N+](CCCCCC)(CCCCCC)CCOCCOCCOc1cccc(C2c3cc(N(C)C)ccc3S(=O)(=O)CC(CCCC)(CCCC)C2O)c1` (stereo not drawn) [Example 1279], the negative logarithm of the IC50 (pIC50) is 7.55.

For `CCCCC1(CCCC)CS(=O)(=O)c2ccc(N(C)C)cc2C(c2ccc(OCCCCCCI)cc2)C1O` (stereo not drawn) [Example 1281], the pIC50 was 7.26.

`CCCCC1(CC)CS(=O)(=O)c2ccc([N+](C)(C)C)cc2C(c2ccc(OC)c(F)c2)C1O` (stereo not drawn) [Example 1282]: the pIC50 is 6.77. For the compound `CCCCC1(CCCC)CS(=O)(=O)c2ccc(N(C)C)cc2C(c2ccc(CO)cc2)C1O` (stereo not drawn) [Example 1283], the pIC50 was 6.77.

`CCCCC1(CCCC)CS(=O)(=O)c2c(NCC)cccc2C(c2ccc(F)cc2)C1O` (stereo not drawn) [Example 1284]: the negative-log IC50 (pIC50) was 7.96. On the same count and under the same terms, for `CCCCC1(CCCC)CS(=O)(=O)c2ccc(N(C)C)cc2C(c2ccc(OCCC[N+](CCCC)(CCCC)CCCC)c(F)c2)C1O` (stereo not drawn) [Example 1286] the value was 7.17.

For the compound `CCCCC1(CCCC)CS(=O)(=O)c2ccc(N(C)C)cc2C(c2cccc(OCCOCCOCC[N+]3(CCOc4ccc(Br)cc4)CCCC3)c2)C1O` (stereo not drawn) [Example 1288], the negative logarithm of the IC50 (pIC50) was 7.89. In the case of `CCCCCCCC[N+](CCCCCCCC)(CCCCCCCC)CCOCCOCCOc1cccc(C2c3cc(N(C)C)ccc3S(=O)(=O)CC(CCCC)(CCCC)C2O)c1` (stereo not drawn) [Example 1289], the negative-log IC50 (pIC50) was 7.59. As to `CCCCC1(CCCC)CS(=O)(=O)c2ccc(N(C)C)cc2C(c2ccc(OCCC[n+]3ccccc3CCCO)c(F)c2)C1O` (stereo not drawn) [Example 1290], the pIC50 was 7.77.

For the compound `CCCCC1(CCCC)CS(=O)(=O)c2ccc(N(C)C)cc2C(c2ccc(OCc3cccc[n+]3C)c(F)c2)C1O` (stereo not drawn) [Example 1291], the pIC50 is 7.89. On to `CCCCC1(CCCC)CS(=O)(=O)c2ccc(N(C)C)cc2C(c2cccc(OCCOCCOCC[P+](c3ccccc3)(c3ccccc3)c3ccccc3)c2)C1O` (stereo not drawn) [Example 1292], for which the negative-log IC50 (pIC50) was 7.60. Consider `CCCCC1(CCCC)CS(=O)(=O)c2ccc(N(C)C)cc2C(c2cccc(OCCOCCOCC[N+](CC)(CC)CCC(C)=O)c2)C1O` (stereo not drawn) [Example 1293], for which the pIC50 is 7.72. In the case of `CCCCC1(CCCC)CS(=O)(=O)c2ccc(N(C)C)cc2C(c2cccc(OCCOCCOCC[N+]3(c4ccccc4)CCCCC3)c2)C1O` (stereo not drawn) [Example 1294], the negative-log IC50 (pIC50) was 7.96. Consider `CCCCC1(CCCC)CS(=O)(=O)c2ccc(N(C)C)cc2C(c2ccc(OCc3cc[n+](CC(=O)OC(C)(C)C)cc3)c(F)c2)C1O` (stereo not drawn) [Example 1295], for which the negative logarithm of the IC50 (pIC50) is 7.85. With `CCCCC1(CCCC)CS(=O)(=O)c2ccc(N(C)C)cc2C(c2ccc(OCCOCCOc3cccc(N(CC)CC)c3)c(F)c2)C1O` (stereo not drawn) [Example 1296], the negative logarithm of the IC50 (pIC50) is 7.20.

Turning to `CCCCC1(CCCC)CS(=O)(=O)c2ccc(N(C)C)cc2C(c2cccc(OCCOCCOCC[n+]3ccc(C4CCC(C)CC4)cc3)c2)C1O` (stereo not drawn) [Example 1297], the negative-log IC50 (pIC50) is 7.54. `CCCCC1(CCCC)CS(=O)(=O)c2ccc(N(C)C)cc2C(c2cccc(OCCOCCOCC[N+](C)(C)CCC(C)CCN(C)C)c2)C1O` (stereo not drawn) [Example 1298]: the negative logarithm of the IC50 (pIC50) was 7.74. For the compound `CCCCC1(CCCC)CS(=O)(=O)c2ccc([N+](C)(C)C)cc2C(c2cccc(OC)c2)C1O` (stereo not drawn) [Example 1301], the negative-log IC50 (pIC50) is 6.82.

Regarding `CCCCC1(CCCC)CS(=O)(=O)c2c(O)cccc2C(c2cccc(O)c2)C1O` (stereo not drawn) [Example 1302], the pIC50 was 5.85.

Regarding `CCCCC1(CCCC)CS(=O)(=O)c2ccc(N(C)C)cc2C(c2ccc(OCC[N+](C)(C)C)cc2)C1O` (stereo not drawn) [Example 1303], the pIC50 is 6.59. Same read-out and setting: for `CCCCC1(CCCC)CS(=O)(=O)c2ccc(NC(C)(C)C)cc2C(c2cccc(OC)c2)C1O` (stereo not drawn) [Example 1304] the value was 6.60.

As for `CCCCC1(CCCC)CS(=O)(=O)c2c(NC)cccc2C(c2ccc(F)cc2)C1O` (stereo not drawn) [Example 1305], the negative logarithm of the IC50 (pIC50) is 6.60.

Consider `CCCCC1(CCCC)CS(=O)(=O)c2ccc(N(C)C)cc2C(c2ccc(OC(=O)C(OC)(c3ccccc3)C(F)(F)F)cc2)C1O` (stereo not drawn) [Example 1306], for which the negative-log IC50 (pIC50) was 5.92.

As to `CCCCC1(CC)CS(=O)(=O)c2ccc(N(C)C)cc2C(c2ccc(OS(=O)(=O)CC34CCC(CC3=O)C4(C)C)c(F)c2)C1O` (stereo not drawn) [Example 1308], the negative logarithm of the IC50 (pIC50) was 7.40. As for `CCCCC1(CCCC)CS(=O)(=O)c2c(F)cccc2C(c2ccc(OC)cc2)C1O` (stereo not drawn) [Example 1309], the negative-log IC50 (pIC50) is 6.62. In the case of `CCCCC1(CC)CS(=O)(=O)c2ccc(N)cc2C(c2ccccc2)C1O` (stereo not drawn) [Example 1310], the pIC50 was 5.94.

`CCCCCCOc1ccc2c(c1)S(=O)(=O)CC(CC)(CCCC)C(O)C2c1ccccc1` (stereo not drawn) [Example 1312]: the negative logarithm of the IC50 (pIC50) was 5.30.

On to `CCCCC1(CC)CS(=O)(=O)c2cc(OCC)ccc2C(c2ccccc2)C1O` (stereo not drawn) [Example 1313], for which the pIC50 was 5.21.

In the case of `CCCCCCOc1ccc2c(c1)C(c1ccccc1)C(O)C(CC)(CCCC)CS2(=O)=O` (stereo not drawn) [Example 1315], the pIC50 was 5.78.

For `CCCCC1(CC)CS(=O)(=O)c2cc(O)ccc2C(c2ccccc2)C1O` (stereo not drawn) [Example 1316], the pIC50 was 5.41.

Take `CCCCC1(CCCC)CS(=O)(=O)c2ccc(N(C)C)cc2C(c2ccc(OC)c(F)c2)C1O` (stereo not drawn) [Example 1347]: the negative-log IC50 (pIC50) is 8.44. For `CCCCC1(CCCC)CS(=O)(=O)c2ccc(N(C)C)cc2C(c2ccc(OCCC[N+](CCCC)(CCCC)CCCC)cc2)C1O` (stereo not drawn) [Example 1352], the negative logarithm of the IC50 (pIC50) is 7.00. Take `CCCCC1(CCCC)CS(=O)(=O)c2ccc(N(C)C)cc2C(c2ccc(OCCOCCOCC[N+]3(C)CC[N+](C)(C)CC3)c(F)c2)C1O` (stereo not drawn) [Example 1354]: the negative-log IC50 (pIC50) is 8.22.
